SMILES strings stand for the structures. The source made the active and inactive calls. No cut-off for these calls is given here.

In assay [1] the target is T1, Thrombopoietin receptor (Homo sapiens) (UniProt P40238).
T1 sequence (whole entry): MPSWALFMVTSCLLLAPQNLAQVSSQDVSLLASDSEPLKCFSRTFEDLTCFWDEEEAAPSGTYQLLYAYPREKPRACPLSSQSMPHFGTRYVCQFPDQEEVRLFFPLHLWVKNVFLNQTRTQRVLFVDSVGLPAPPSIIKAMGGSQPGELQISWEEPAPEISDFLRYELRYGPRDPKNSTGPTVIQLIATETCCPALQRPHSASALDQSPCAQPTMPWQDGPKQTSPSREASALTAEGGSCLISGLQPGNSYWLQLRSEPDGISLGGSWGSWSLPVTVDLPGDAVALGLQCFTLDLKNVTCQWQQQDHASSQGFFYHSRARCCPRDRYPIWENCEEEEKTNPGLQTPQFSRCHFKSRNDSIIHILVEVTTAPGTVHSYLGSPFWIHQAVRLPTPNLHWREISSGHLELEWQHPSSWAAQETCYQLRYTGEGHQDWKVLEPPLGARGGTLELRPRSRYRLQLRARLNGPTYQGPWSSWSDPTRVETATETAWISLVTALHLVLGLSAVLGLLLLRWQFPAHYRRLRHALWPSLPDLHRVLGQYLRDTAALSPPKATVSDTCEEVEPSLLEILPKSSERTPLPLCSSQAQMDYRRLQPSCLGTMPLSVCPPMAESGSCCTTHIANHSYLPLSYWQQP
Put plainly: Agonist activity at human TPO receptor expressed in mouse BaF-B03 cells assessed as induction of cell proliferation after 20 hrs by WST-1 assay. It counts as cell-based. In general terms: Formazan colour is commonly taken as a measure of viable cells.

For another assay, the system named is Mus musculus. In words: Increase in platelet levels in mouse expressing human transmembrane site of TPO receptor administered as po bid for 2 weeks measured after 3 days to 3 weeks post initiation of initial dose relative to vehicle-treated control. The class given is functional, organism-based.

With `CCCCCC[C@@H](OC)c1cccc(-c2csc(NC(=O)c3cc(Cl)c(/C=C(\C)C(=O)O)c(Cl)c3)n2)c1OC`, the ED50 in assay [1] was 3.09 nM. Besides, in the assay with Mus musculus, the result was Active.
On to `CCCO[C@H](c1cccc(-c2csc(NC(=O)c3cc(Cl)c(/C=C(\C)C(=O)O)c(Cl)c3)n2)c1OC)C(C)(C)C`, for which the result in the assay with Mus musculus was Active.
Take `CCCCCCO[C@H](C)c1cccc(-c2csc(NC(=O)c3cc(Cl)c(/C=C(\C)C(=O)O)c(Cl)c3)n2)c1OC`: in assay [1], the ED50 came out at 1.4 nM. In addition, the outcome with Mus musculus was Active.
For `CCCCCC[C@H](OC)c1cccc(-c2csc(NC(=O)c3cc(Cl)c(/C=C(\C)C(=O)O)c(Cl)c3)n2)c1OC` the same measures were 2.08 nM and “Active”.
With `CCCCCCO[C@@H](C)c1cccc(-c2csc(NC(=O)c3cc(Cl)c(/C=C(\C)C(=O)O)c(Cl)c3)n2)c1OC`, in assay [1], the ED50 stood at 1.09 nM. Moreover, the outcome with Mus musculus was Active.

For the origin of these results see ChEMBL document CHEMBL3880436, “Pharmaceutical composition containing optically active compound having thrombopoietin receptor agonist activity, and intermediate therefor” (2013).
